Bounds are passed on as bounds.

We go through five compounds from patent publication US9145351B2, “Azole derivatives, methods for producing the same, intermediate thereof, agro-horticultural agents” (KUREHA CORPORATION, priority 2009, dated 2015).

Experiment [1] deals with Puccinia recondita. As to the kind of experiment: Efficacy test against wheat brown rust, 100 mg/L and 10 mg/L (Experimental Example 2). Type of experiment: in vivo. Particulars: nine to 14 days after inoculation; for pest or weed control at 100 µg/mL: Puccinia recondita, 336 h, 100 mg/L sprayed at 1,000 L/ha, read-out: Protective value; for efficacy compared with compound (1): 10 mg/L sprayed at 1,000 L/ha. How it is done:
Onto a wheat plant (variety: NORIN No. 61) grown to the two-leaf phase using a square plastic pot (6 cm×6 cm), a wettable formulation such as Formulation Example 1 which was diluted and suspended in water at a certain concentration (100 mg/L and 10 mg/L) was sprayed at a rate of 1,000 L/ha. The sprayed leaves were air-dried, and inoculated with spore suspension of Puccinia recondita (adjusted at 200 spores/vision, […] was added at 60 ppm) by spraying, and kept at 25 degrees C. and a high humidity for 48 hours. Thereafter, the plant was kept in a greenhouse. Nine to 14 days after inoculation, the wheat brown rust lesion degree was investigated, and the protective value was calculated by the following equation. Protective value (%)=(1-lesion degree in sprayed plot/lesion degree in unsprayed plot)×100

Experiment [2] concerns Fusarium graminearum. As to the kind of experiment: whole plant or invertebrate. Particulars: in Triticum aestivum, 168 h, read-out: Protective value. Type of experiment: in vivo.
Experiment [3] has as its system Septoria tritici. As to the kind of experiment: Microplate test of biocidal effect on wheat Septoria blotch (Experimental Example 4). The format is cell-based. Particulars: Zymoseptoria tritici, 240 h; % mycelium growth inhibition, absorbance 550 nm, 20 degrees C. for about 10 days; read-out: activity level (EC80). How it is done: A spore suspension of wheat Septoria blotch (Septoria tritici) (spore concentration: 1×10^6 cells/ml) was prepared, and subjected to 100-fold dilution with a PD medium. A flat 96-well microplate was provided and 1 microliter of the test compound solution formed by dissolution in dimethyl sulfoxide (DMSO) at a concentration 100 times the test concentration was dispensed to the microplate, and then 100 microliter of the medium containing the spore was added and stirred thoroughly. […] R=100×(dc−dt)/dc: R: % mycelium growth inhibition dc: Absorbance of non-treatment zone dt: Absorbance of treatment zone

For experiment [4], the system named is Aspergillus sp. As to the kind of experiment: Plate medium assay, industrial material deteriorating microorganism, Aspergillus (Experimental Example 5). Type of experiment: cell-based. Particulars: treatment at 50 mg/l, PDA plate medium, read-out: growth inhibition grade. How it is done: (§1) In this Experimental Example, the fungicidal effects of the inventive compounds on various phytopathogenic fungi for plants and hazardous microorganism for industrial materials were examined by the methods described below. Each inventive compound was dissolved in 2 ml of dimethyl sulfoxide. 0.6 ml of this solution was added to 60 nil of a PDA medium (potato dextrose agar medium) at about 60 degrees C., which was mixed thoroughly in a 100-ml conical flask, and poured into a dish, where it was solidified, thereby obtaining a plate medium containing the inventive compound at 50 mg/L and 5 mg/L. On the other hand, a subject microorganism previously cultured on a plate medium was cut out using a cork borer whose diameter was 4 mm, and inoculated to the test compound-containing plate medium described above. […] The growth degree of the microorganism on the test compound-containing plate medium thus observed was compared with the growth degree of the microorganism in the untreated group, and % mycelial growth inhibition was calculated by the following equation. R=100(dc-dt)/dc wherein R=% mycelial extension inhibition, dc=flora diameter in untreated plate, dt=flora diameter in treated plate. The results obtained as described above were evaluated as one of the 5 grades according to the following criteria.

Experiment [5] deals with Trichoderma sp. As to the kind of experiment: Plate medium assay, industrial material deteriorating microorganism, Trichoderma (Experimental Example 5). Type of experiment: cell-based. The note with it: treatment at 50 mg/l, PDA plate medium, read-out: growth inhibition grade. On the procedure:
as §1

Experiment [6] deals with Cladosporium sp. As to the kind of experiment: Plate medium assay, industrial material deteriorating microorganism, Cladosporium (Experimental Example 5). Type of experiment: cell-based. The note with it: treatment at 50 mg/l, PDA plate medium, read-out: growth inhibition grade. How it is done:
as §1

Experiment [7] relates to Aureobasidium sp. In words: Plate medium assay, industrial material deteriorating microorganism, Aureobasidium (Experimental Example 5). Type of experiment: cell-based. The note with it: treatment at 50 mg/l, PDA plate medium, read-out: growth inhibition grade. On the procedure: as §1
Experiment [8] relates to Curvularia sp. In words: Plate medium assay, industrial material deteriorating microorganism, Curvularia (Experimental Example 5). Particulars: treatment at 50 mg/l, PDA plate medium, read-out: growth inhibition grade. The format is cell-based. How it is done:
as §1

Experiment [9] has as its system Tyromyces palustris. In words: Plate medium assay, wood denaturing microorganism Oouzuratake (Experimental Example 5). The format is cell-based. The note with it: treatment at 50 mg/l, PDA plate medium; read-out: growth inhibition grade. How it is done: as §1
The subject of experiment [10] is Coriolus versicolor. As to the kind of experiment: Plate medium assay, wood denaturing microorganism Kawaratake (Experimental Example 5). The format is cell-based. Particulars: Trametes versicolor; treatment at 50 mg/l, PDA plate medium; read-out: growth inhibition grade. How it is done:
as §1

In experiment [11] the test system is Botrytis cinerea. In words: Efficacy test against cucumber gray mold (Experimental Example 1). The format is in vivo. The note with it: 96 h, four days after inoculation, read-out: Protective value; for pest or weed control at 100 µg/mL: 100 mg/L sprayed at 1,000 L/ha. How it is done:
Onto a cucumber (variety:SHARP1) plant in its cotyledon phase grown using a square plastic pot (6 cm×6 cm), a wettable formulation such as Formulation Example 1 which was diluted and suspended in water at a certain concentrations (100 mg/L and 50 mg/L) was sprayed at a rate of 1,000 L/ha. The sprayed leaves were air-dried, and loaded with a paper disc (8 mm in diameter) soaked in a spore suspension of Botrytis cinerea, and kept at 20 degrees C. and a high humidity. Four days after inoculation, the cucumber gray mold lesion degree was investigated, and the protective value was calculated by the following equation. Protective value (%)=(1−mean lesion degree in sprayed plot/mean lesion degree in unsprayed plot)×100

For orientation: EC80 means the point of the concentration-response curve where the effect stands at 80%. One may read the inhibition as the change of the read-out against control, counted positive when it falls. As for `C[C@]1(CCl)CC[C@@H](Cc2ccc(Cl)cc2)[C@]1(O)Cn1ccnc1` (racemic) [Compound I-244, (1RS,2SR,5SR)-5-(4-chlorobenzyl)-2-chloromethyl-2-methyl-1-imidazol-1-ylmethylcyclopentanol], the pest or weed control at 100 µg/mL in experiment [1] is no less than 90%. Further, the pest or weed control at 500 µg/mL in experiment [2] is no less than 90%. For the same compound, in [3], the EC80 is no more than 0.2 µg/mL. Moreover, the inhibition at 50 µg/mL in experiment [4], in experiment [5], in experiment [6], in experiment [7], in experiment [8] and in experiment [9] was 60 to 80% throughout. In experiment [10], the inhibition at 50 µg/mL lay in the range of 60 to 80%.
Take `C[C@]1(CBr)CC[C@@H](Cc2ccccc2)[C@]1(O)Cn1cncn1` (racemic) [Compound I-602, (1RS,2SR,5SR)-2-bromomethyl-5-benzyl-2-methyl-1-(1H-1,2,4-triazol-1-ylmethyl)cyclopentanol]: the pest or weed control at 50 µg/mL in [11] (50 mg/L sprayed at 1,000 L/ha) is no less than 80%. Further, the figures for the pest or weed control at 100 µg/mL in experiment [11], in experiment [1] and in [2] were no less than 80%, no less than 90% and no less than 80%, respectively. In addition, the “efficacy compared with compound (1)” value in experiment [1] is recorded as “higher efficacy than that of compound (1)”. In addition, the pest or weed control at 500 µg/mL in experiment [2] is no less than 90%. The EC80 in experiment [3] was no more than 0.2 µg/mL. For the same compound, the inhibition at 50 µg/mL in experiment [4], in experiment [5], in [6], in experiment [7], in [8] and in experiment [9] was 60 to 80% each time. Further, the inhibition at 50 µg/mL in [10] lay in the range of 60 to 80%.
As for `C[C@]1(CCl)CC[C@H](Cc2ccc(Cl)cc2)[C@]1(O)Cn1cncn1` (racemic) [Compound I-301, (1RS,2SR,5RS)-5-(4-chlorobenzyl)-2-chloromethyl-2-methyl-1-[1,2,4]triazol-1-ylmethylcyclopentanol], the pest or weed control at 100 µg/mL in experiment [1] is no less than 90%. Also, in experiment [2], the pest or weed control at 500 µg/mL is no less than 90%. The EC80 in [3] is no more than 0.2 µg/mL. Further, the inhibition at 50 µg/mL in experiment [4], in experiment [5], in [6], in experiment [7], in experiment [8] and in experiment [9] was 60 to 80% each time. For the same compound, the inhibition at 50 µg/mL in experiment [10] lay in the range of 60 to 80%.
`O[C@]1(Cn2cncn2)[C@H](Cc2ccc(Cl)cc2)CC[C@@H]1C(F)(F)F` (racemic) [Compound I-65, (1RS,2SR,5SR)-5-(4-chlorobenzyl)-2-trifluoromethyl-1-(1H-1,2,4-triazol-1-ylmethyl)cyclopentanol]: the pest or weed control at 100 µg/mL in experiment [11] was no less than 80%; in experiment [1], no less than 90%. Besides, the pest or weed control at 500 µg/mL in experiment [2] is no less than 90%. The inhibition at 50 µg/mL in [4], in [5], in [6], in experiment [7], in experiment [8] and in [9] was 60 to 80% each time. The inhibition at 50 µg/mL in [10] lay in the range of 60 to 80%.
For the compound `CC[C@]1(CCl)CC[C@@H](Cc2ccc(Cl)cc2)[C@]1(O)Cn1cncn1` (racemic) [Compound I-36, (1RS,2SR,5SR)-5-(4-chlorobenzyl)-2-chloromethyl-2-ethyl-1-(1H-1,2,4-triazol-1-ylmethyl)cyclopentanol], the “efficacy compared with compound (1)” value in experiment [1] is given as “higher efficacy than that of compound (1)”. The pest or weed control at 100 µg/mL in experiment [1] is no less than 90%; in experiment [2] it was no less than 80%. Further, the pest or weed control at 500 µg/mL in experiment [2] was no less than 90%. In addition, the EC80 in experiment [3] was no more than 0.2 µg/mL. Moreover, the inhibition at 50 µg/mL in [4], in experiment [5], in experiment [6], in experiment [7], in experiment [8] and in experiment [9] was 60 to 80% throughout. Besides, in [10], the inhibition at 50 µg/mL lay in the range of 60 to 80%.
